Legend:
Assay type in all cases: binding
[1] = biological target: T1, GlHsp90 (trans-spliced full-length heat shock protein 90) (Giardia duodenalis, UniProt A0A644F9H9); experiment: intrinsic fluorescence quenching; also inhibits the purified ATPase (EC50 […])
T1 construct: gene GL50803_0098054; full length Hsp90, N terminus 6x His-tag (Methods text says purified HspN)

[2] = biological target: T1, GlHsp90 (trans-spliced full-length heat shock protein 90); experiment: intrinsic fluorescence quenching; also ATPase by TLC with radiolabelled ATP (Km […])
[3] = biological target: T1, GlHsp90 (trans-spliced full-length heat shock protein 90); experiment: intrinsic tryptophan fluorescence quenching (ex […] nm, em […] nm), single-site fit

T1 sequence (A0A644F9H9 entry or part of it): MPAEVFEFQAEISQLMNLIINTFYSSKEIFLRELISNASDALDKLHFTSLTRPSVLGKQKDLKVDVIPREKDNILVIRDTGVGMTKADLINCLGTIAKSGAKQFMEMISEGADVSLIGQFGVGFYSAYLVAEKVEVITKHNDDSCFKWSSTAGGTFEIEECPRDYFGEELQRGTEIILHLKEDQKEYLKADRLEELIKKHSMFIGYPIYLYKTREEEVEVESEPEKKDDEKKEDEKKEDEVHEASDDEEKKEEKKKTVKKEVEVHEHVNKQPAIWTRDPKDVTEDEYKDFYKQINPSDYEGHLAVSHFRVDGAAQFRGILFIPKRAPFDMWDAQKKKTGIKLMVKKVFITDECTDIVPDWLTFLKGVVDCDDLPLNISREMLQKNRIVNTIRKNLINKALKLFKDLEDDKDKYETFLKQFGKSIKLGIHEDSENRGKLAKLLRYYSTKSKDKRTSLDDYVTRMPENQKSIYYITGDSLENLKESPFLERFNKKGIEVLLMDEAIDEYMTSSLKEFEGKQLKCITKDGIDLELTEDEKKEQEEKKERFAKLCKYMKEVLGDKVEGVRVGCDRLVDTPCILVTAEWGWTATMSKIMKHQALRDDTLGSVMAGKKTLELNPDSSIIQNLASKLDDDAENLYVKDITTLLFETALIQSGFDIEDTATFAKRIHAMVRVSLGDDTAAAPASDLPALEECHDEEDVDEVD

Question: C=CCNC1=C2C[C@@H](C)C[C@H](OC)[C@H](O)[C@@H](C)/C=C(\C)[C@H](OC(N)=O)[C@@H](OC)/C=C\C=C(/C)C(=O)NC(=CC1=O)C2=O [17AAG] was tested. Which Kd [1] did it give?
Answer: The Kd was 17.1 µM.

Question: Nc1ncnc2c1ncn2[C@@H]1O[C@H](COP(=O)(O)OP(=O)(O)OP(=O)(O)O)[C@@H](O)[C@H]1O [ATP] was tested. Which Kd [2] did it give?
Answer: Its Kd is 630 µM.

Question: Which Kd [3] does the source give for COC1=C2C[C@@H](C)C[C@H](OC)[C@H](O)[C@@H](C)/C=C(\C)[C@H](OC(N)=O)[C@@H](OC)/C=C\C=C(/C)C(=O)NC(=CC1=O)C2=O [GA, Geldanamycin] here?
Answer: Its Kd is 1.5 µM.

From paper PMC4006730, “Trans-spliced Heat Shock Protein 90 Modulates Encystation in Giardia lamblia” (PLoS Neglected Tropical Diseases, 2014)
